# Source: article PMC10283505, “CVM-1118 (foslinanib), a 2-phenyl-4-quinolone derivative, promotes apoptosis and inhibits vasculogenic mimicry via targeting TRAP1” (Pathology and Oncology Research, 2023)
# Entries after “also recorded” stand apart in the source; their conditions may differ.
# Key:
# [1] = tested on: SF-539; assay: NCI 60 cytotoxicity screening; type: cell-based; details: Homo sapiens; SF-539, CNS
# [2] = tested on: HCT-116; assay: NCI 60 cytotoxicity screening; type: cell-based; details: Homo sapiens
# [3] = tested on: CAKI-1; assay: NCI 60 cytotoxicity screening; type: cell-based; details: Homo sapiens; CAKI-1, Renal
# [4] = tested on: RXF 393; assay: NCI 60 cytotoxicity screening; type: cell-based; details: Homo sapiens; RXF 393, Renal
# [5] = tested on: MOLT-4; assay: NCI 60 cytotoxicity screening; type: cell-based; details: Homo sapiens; MOLT-4, Leukemia
# [6] = tested on: SR; assay: NCI 60 cytotoxicity screening; type: cell-based; details: Homo sapiens, Leukemia
# [7] = biological target: T1, TGFβig-h3 (Homo sapiens, UniProt Q15582); assay: Surface plasmon resonance (Biacore); type: binding; details: TGFβig-h3, SPR
# T1 sequence (Q15582 24-683): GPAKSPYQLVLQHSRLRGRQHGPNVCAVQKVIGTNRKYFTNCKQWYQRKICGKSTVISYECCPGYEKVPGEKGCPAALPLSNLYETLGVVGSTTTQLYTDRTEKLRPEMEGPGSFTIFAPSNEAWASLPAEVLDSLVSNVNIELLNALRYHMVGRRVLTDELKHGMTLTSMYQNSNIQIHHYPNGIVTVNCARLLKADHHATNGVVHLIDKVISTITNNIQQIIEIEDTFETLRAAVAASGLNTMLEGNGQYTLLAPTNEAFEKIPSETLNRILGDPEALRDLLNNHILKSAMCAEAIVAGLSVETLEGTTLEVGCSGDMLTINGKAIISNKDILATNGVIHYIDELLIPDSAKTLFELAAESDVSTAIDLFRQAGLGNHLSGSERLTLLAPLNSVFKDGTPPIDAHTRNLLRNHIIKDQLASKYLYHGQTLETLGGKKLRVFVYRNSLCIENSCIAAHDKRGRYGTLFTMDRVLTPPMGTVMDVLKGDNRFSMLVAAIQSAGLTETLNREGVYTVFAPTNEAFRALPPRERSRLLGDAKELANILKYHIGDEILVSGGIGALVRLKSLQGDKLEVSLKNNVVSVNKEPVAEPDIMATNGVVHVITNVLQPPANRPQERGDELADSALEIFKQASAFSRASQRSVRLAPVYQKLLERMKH
# [8] = tested on: IGROV1; assay: NCI 60 cytotoxicity screening; type: cell-based; details: Homo sapiens, IGROV-1; IGROV1, Ovarian
# [9] = biological target: T2, human Hsp90 recombinant protein (HSP90AB1) (Homo sapiens, UniProt P08238); assay: Surface plasmon resonance (Biacore); type: binding; details: recombinant human Hsp90 beta protein
# T2 construct: purchased Abcam ab131923
# Method: To confirm the molecular binding of the targeted protein, Surface Plasmon Resonance (SPR) was performed with a Biacore 3000. TRAP1 recombinant protein (Abcam, ab123775) or human Hsp90 recombinant protein (HSP90AB1, Abcam, ab131923) were immobilized on a CM5 sensor chip surface using the amine coupling method according to the manufacturer’s instruction (Biacore, GE Healthcare). CVM-1125 was dissolved in sodium carbonate buffer (pH 9) and then diluted in HBS-EDTA-P20 buffer to desired concentrations (five serial dilutions from 1 × 10^−5 to 1 × 10^−8 M) and injected at flow 30 μL/min with KINJET 60/180 %pos, analyte position, volume, and dissociation time. Specific binding was calculated using BiaEval 3 software.
# [10] = tested on: HT29; assay: NCI 60 cytotoxicity screening; type: cell-based; details: Homo sapiens, HT-29; HT29, Colon
# [11] = tested on: HT-29 colorectal adenocarcinoma cells; assay: Flow cytometry cell cycle analysis (PI); type: cell-based, human; details: 48 h
# Method: This assay was conducted by ProQinase GmbH (Freiburg, Germany). HT-29 colorectal adenocarcinoma cells were seeded at 150,000 cells/well in 6-well cell culture plates in 5 mL complete medium and incubated at 37°C overnight. On the day of the assay, CVM-1118 at various concentrations or 0.1% DMSO were added to the cells. After 48 h incubation, cells were harvested including the supernatant, fixed in 80% methanol, and stored at −20°C overnight. The next day, cells were rehydrated in PBS for 30 min and treated with RNAse A (100 μg/mL) and propidium iodide (PI) (25 μg/mL). Cell cycle distribution was analyzed by flow cytometry (FACSCalibur, BD Biosciences), assessing approximately 10,000 events. Detection of DNA intercalated with PI was done by fluorescence detector FL3, in which amplification was set in such a manner that the first amplitude peak of the FL3 signal (FL3-A) in untreated cells (corresponding to the G1 cell population) was found at approximately 200 units. For analysis, events were plotted as histogram. The peak at ∼200 units was defined as cells in G1, events below the G1-peak were considered apoptotic cells (sub-G1), and events at ∼400 units as G2/M cells. All signals in between 200 and 400 units were defined as cells in S-Phase, and those beyond 400 units as endoreduplicated cells (endoR).
# T2 sequence (P08238 whole entry): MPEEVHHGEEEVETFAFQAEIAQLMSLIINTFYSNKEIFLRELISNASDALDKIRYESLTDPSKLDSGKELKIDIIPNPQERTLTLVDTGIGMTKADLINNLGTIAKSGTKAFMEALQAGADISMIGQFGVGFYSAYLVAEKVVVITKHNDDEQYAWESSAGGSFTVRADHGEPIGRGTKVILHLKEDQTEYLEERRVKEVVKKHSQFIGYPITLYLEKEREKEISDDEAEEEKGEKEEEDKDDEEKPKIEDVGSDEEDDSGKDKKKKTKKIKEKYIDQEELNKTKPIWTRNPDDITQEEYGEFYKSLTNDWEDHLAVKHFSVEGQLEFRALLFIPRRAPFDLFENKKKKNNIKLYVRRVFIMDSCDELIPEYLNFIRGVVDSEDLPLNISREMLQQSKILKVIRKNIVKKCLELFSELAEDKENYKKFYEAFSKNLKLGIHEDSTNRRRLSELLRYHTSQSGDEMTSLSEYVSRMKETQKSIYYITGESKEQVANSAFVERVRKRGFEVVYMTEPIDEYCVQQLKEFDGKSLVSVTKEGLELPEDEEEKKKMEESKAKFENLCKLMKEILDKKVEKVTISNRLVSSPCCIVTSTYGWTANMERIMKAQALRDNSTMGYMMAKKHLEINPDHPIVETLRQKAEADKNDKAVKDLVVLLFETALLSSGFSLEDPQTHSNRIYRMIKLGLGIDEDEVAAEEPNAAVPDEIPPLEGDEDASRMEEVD
structure (smiles),measurement,setting,value
COc1ccc2[nH]c(-c3cccc(F)c3)cc(=O)c2c1O [CVM-1125],GI50,[1],0.0262 µM
same,GI50,"[2]; HCT-116, Colon",0.033 µM
same,IC50,"[2]; HCT-116, refers to Supplementary Table S2",0.033 µM
same,GI50,[3],0.0467 µM
same,GI50,[4],0.0175 µM
same,GI50,[5],0.0476 µM
same,GI50,[6],0.012 µM
same,Association (ka),[7],No interaction
same,Dissociation (kd),[7],No interaction
same,KD (kd/ka),[7],No interaction
same,GI50,[8],0.027 µM
same,interaction with Hsp90 by SPR,[9],no specific interaction; also recorded: not interacting
same,GI50,[10],0.029 µM
COc1ccc2[nH]c(-c3cccc(F)c3)cc(=O)c2c1OP(=O)(O)O [CVM-1118],"Cell cycle profile, EndoR","[11]; HT-29, 10 nM",1.28%
same,"Cell cycle profile, G1 phase","[11]; HT-29, 10 nM",49.34%
same,"Cell cycle profile, G2/M phase","[11]; HT-29, 10 nM",25.66%
same,"Cell cycle profile, S phase","[11]; HT-29, 10 nM",23.02%
same,"Cell cycle profile, Sub-G1","[11]; HT-29, 10 nM",1.24%
same,"Cell cycle profile, EndoR","[11]; HT-29, 30 nM",1.23%
same,"Cell cycle profile, G1 phase","[11]; HT-29, 30 nM",50.63%
same,"Cell cycle profile, G2/M phase","[11]; HT-29, 30 nM",23.71%
same,"Cell cycle profile, S phase","[11]; HT-29, 30 nM",23.30%
same,"Cell cycle profile, Sub-G1","[11]; HT-29, 30 nM",1.44%
same,"Cell cycle profile, EndoR","[11]; HT-29, 100 nM",2.84%
same,"Cell cycle profile, G1 phase","[11]; HT-29, 100 nM",16.27%
same,"Cell cycle profile, G2/M phase","[11]; HT-29, 100 nM",43.42%
same,"Cell cycle profile, S phase","[11]; HT-29, 100 nM",10.90%
same,"Cell cycle profile, Sub-G1","[11]; HT-29, 100 nM",26.96%
same,"Cell cycle profile, EndoR","[11]; HT-29, 300 nM",2.45%
same,"Cell cycle profile, G1 phase","[11]; HT-29, 300 nM",1.58%
same,"Cell cycle profile, G2/M phase","[11]; HT-29, 300 nM",50.77%
same,"Cell cycle profile, S phase","[11]; HT-29, 300 nM",23.63%
same,"Cell cycle profile, Sub-G1","[11]; HT-29, 300 nM",22.46%
